Test [1] is described as follows: Oxidation of tetramethylene sulfoxide to sulfolane by peroxynitrite. How it is done:
The sulfolane was extracted into diethyl ether after 10 min of stirring and quantified by GC analysis. The same experiment was done at pH 12.7, with a reaction time of 4 hr.
(§1) These particular molecules were specifically chosen because they represent targets of hydroxyl radical, nitrogen dioxide, and of oxygen transfer reagents. In addition, their reaction products are easily identified and quantified by established methods.

Test [2] is described as follows: Oxidation of DMSO to formaldehyde by peroxynitrite. As to conditions: pH 7.4, T=25°C, yield relative to [PN]0; PN alone 11.5%. As to the method: The final pH of the solutions was 7.4 and the temperature was maintained at 24° C. After 5 min of stirring, a 0.3 ml NaOH solution (7.8 M) was added to each tube for analyzing the amount of formed formaldehyde. This was immediately followed by supplying the tubes with 0.3 mL of 34.2 mM Purpald® (a color forming reagent for the determination of aldehydes; Aldrich Chemical Co.) in 480 mM HCl; and a second incubation with continuous shaking was performed for 10 min at 24° C. The thus obtained reaction product between formaldehyde and Purpald® was oxidized to a colored compound by the addition of 0.3 mL 470 mM KIO4 in 470 mM NaOH. The absorbance at 550 nm was measured with a spectrophotometer and the amount of formaldehyde was determined by using a standard curve obtained from formaldehyde solutions of known concentrations (a linear curve was obtained by drawing final O.D. at 550 nm versus initial formaldehyde concentrations).
as §1

For test [3], the system named is J-774 macrophages. The test can be described thus: Cholesterol efflux from J-774 macrophages by serum of treated E^0 mice. As to conditions: drinking water 0.04 mM (8 mg/Kg/day), 14 weeks.
Description: J-774 macrophages were incubated with [^3H]-labeled cholesterol for 1.5 h at 37° C. followed by cell wash in ice-cold PBS (3×) and further incubation in the presence of 15 μL mice serum for 3 h at 37° C. Cellular and medium [^3H]-labels were quantitated and HDL-mediated cholesterol efflux was calculated as the ratio of [^3H]-label in the medium/[^3H]-label in the medium+[^3H]-label in cells.
The test system of test [4] is LDL. The test can be described thus: Interaction of LDL with corroles (absorbance before/after dialysis). The class given is binding, human. As to conditions: 10 μM corrole, 100 mg LDL protein/L (0.2 μM), dialyzed against PBS. As to the method:
The solutions where extensively dialyzed against PBS, and the electronic spectrum was measured again. The difference in the absorbance can be used to calculate the number of corrole molecules bound to LDL [HDL].
Possible interactions between the corroles and LDL were investigated prior to the examinations of the effect of the corroles on LDL oxidation. This was performed by recording the absorbance spectrum of 10 μM aqueous corrole solutions before and after addition of 100 mg of LDL protein/L (corresponding to a molar concentration of 0.2 μM). […] This large number is quite reasonable since the LDL particle is very large and may not encompass specific binding sites, but rather the amphiphilic nature of the examined corroles renders them ideal for positioning in the phospholipid monolayer of the LDL, with the hydrophilic head groups sticking out toward the aqueous phase, as previously proposed for amphiphilic porphyrins (Camejo et al., 1998; Bonneau et al., 2004). In any case, no corrole is expected to be free in solution at the maximal corrole concentration used in the forthcoming experiments, namely, 5 μM per 100 mg of LDL protein/L (about 25 corrole molecules per LDL particle).

Test [5] relates to mouse peritoneal macrophages (MPM). The test can be described thus: Cholesterol synthesis by MPM of treated E^0 mice. As to conditions: drinking water 0.04 mM (8 mg/Kg/day), 14 weeks.
Description: Cellular cholesterol biosynthesis was assayed after incubation of macrophages (3×10^6 well^−1) overnight with DMEM containing 2% BSA followed by additional 3 h of incubation at 37° C. with [^3H]-acetate (3.3 μCi/ml). Cellular lipids were extracted with hexane:isopropanol (3:2, v:v), and the upper phase was dried under nitrogen. The lipids were then separated by TLC using an eluent of hexane:ether:acetic acid (130:30:1.5, v:v:v). Unesterified cholesterol spots were visualized by iodine vapor (by using standard for identification) and counted with β-counter.
Test [6] in a line: Nitration of fluorescein by peroxynitrite. As to conditions: pH 7.4, T=25°C, relative to [fluorescein]0; PN alone 30%. How it is done:
The changes in fluorescein absorbance were measured on the UV/vis spectrophotometer. The yield of nitration was determined by converting absorbance to changes in concentration of fluorescein and nitrated fluorescein, using pre-determined extinction coefficients. For increased accuracy, the three wavelengths in which the largest changes in absorbance occur were used. The yields were calculated based on the initial substrate concentration.
as §1

Test [7] deals with mouse peritoneal macrophages (MPM). The test can be described thus: Cholesterol efflux from MPM of treated E^0 mice. As to conditions: drinking water 0.04 mM (8 mg/Kg/day), 14 weeks.
Description: Mouse peritoneal macrophages were incubated with [^3H]-labeled cholesterol for 1 h at 37° C. followed by cell wash in ice-cold PBS (3×) and further incubation in the absence or presence of 100 μg of human HDL protein/ml for 3 h at 37° C. Cellular and medium [^3H]-labels were quantitated and HDL-mediated cholesterol efflux was calculated as the ratio of [^3H]-label in the medium/[^3H]-label in the medium+[^3H]-label in cells.
[8] abbreviates: pH 7.4, T=25°C, yield relative to [PN]0, PN alone 3.14%.
[9] abbreviates: pH 12.7, yield relative to [PN]0, PN alone 83%.

Marks after values point to notes of the source that are not given here.

`O=S(=O)(O)c1cc2[n]3c1C(c1c(F)c(F)c(F)c(F)c1F)=C1C=CC4=[N+]1[Fe-]31[n]3c(cc(S(=O)(=O)O)c3-2)C(c2c(F)c(F)c(F)c(F)c2F)=c2ccc([n]21)=C4c1c(F)c(F)c(F)c(F)c1F` (stereo not shown) [1-Fe, 5,10,15-tris(pentafluorophenyl)-2,17-bis(sulfonic acid)-corrolato iron(III)]: the “Yield of sulfolane from tetramethylenesulfoxide” value is 0.1%^ in test [1] (setting [8]) and 0.4%^(b) in test [1] (setting [9]). Further, in test [2], the “Yield of formaldehyde from DMSO” value was 0%. The “Increase in serum-mediated cholesterol efflux from J-774 macrophages” value in test [3] came out at 7%. Besides, the “Decrease of absorbance after dialysis” value in test [4] stood at 10%. In addition, the “Reduction of cholesterol synthesis by MPMs” value in test [5] amounted to 76%. The “Yield of nitrofluorescein from fluorescein” value in test [6] is given as 4%^(a). Further, the “Decrease in cholesterol efflux from the E^0 MPM” value in test [7] is listed as 20%.
With `O=S(=O)(O)c1cc2[n]3c1C(c1c(F)c(F)c(F)c(F)c1F)=C1C=CC4=[N+]1[Mn-]31[n]3c(cc(S(=O)(=O)O)c3-2)C(c2c(F)c(F)c(F)c(F)c2F)=c2ccc([n]21)=C4c1c(F)c(F)c(F)c(F)c1F` (stereo not shown) [1-Mn, 5,10,15-tris(pentafluorophenyl)-2,17-bis(sulfonic acid)-corrolato manganese(III)], the “Yield of sulfolane from tetramethylenesulfoxide” value in test [1] (setting [8]) is reported as 0.18%; in test [1] (setting [9]), 0.6%^(b). Further, in test [2], the “Yield of formaldehyde from DMSO” value stood at 0%. For the same compound, the “Decrease of absorbance after dialysis” value in test [4] is recorded as 20%. Moreover, the “Yield of nitrofluorescein from fluorescein” value in test [6] was found to be 0%.

The record behind these values is patent publication US8791099B2, “Transition metal complexes of corroles for preventing cardiovascular diseases or disorders” (Technion Research and Development Foundation Ltd., priority 2007, dated 2014).
